Results taken from patent publication US20100311698A1, “AQUEOUS BASED PHARMACEUTICAL FORMULATIONS OF WATER-SOLUABLE PRODRUGS OF PROPOFOL” (EISAI C[…] NORTH AMERICA, priority 2006, published 2010).
Read-outs that look alike come from different tables or passages of the source.

What was measured:
[1] = DIP (propofol) formation by hydrolysis at accelerated stability conditions as a function of pH; type: physicochemical; details: for DIP formation: 40° C./75% RH
Description: This example illustrates that the degradation of O-phosphonooxymethyl propofol is pH dependent. In particular, higher pH conditions generally result in lower rates of hydrolysis (degradation) of the prodrug, while lower pH conditions increase the rate of hydrolysis. […]

Water solubility = type: physicochemical; details: degradation products of the prodrug
[2] = commercially available formulations; cited from earlier work
[3] = anesthetic induction doses; cited from earlier work
[4] = background statement; cited from earlier work

Work on `CC(C)c1cccc(C(C)C)c1OCOP(=O)(O)O` [O-phosphonooxymethyl propofol, O-phosphonooxymethyl-propofol] yielded a DIP formation ([1]; pH 6.9, 1 month) of 1.22 % w/v, a DIP formation ([1]; pH 6.9, 3 months) of 1.90 % w/v and a DIP formation ([1]; pH 6.9, 6 months) of 3.47 % w/v. It also gave a DIP formation ([1]; pH 7.4, 1 month) of 0.83 % w/v, a DIP formation ([1]; pH 7.4, 3 months) of 0.67 % w/v and a DIP formation ([1]; pH 7.4, 6 months) of 2.14 % w/v. It also gave a DIP formation ([1]; pH 8.0, 1 month) of 0.32 % w/v, a DIP formation ([1]; pH 8.0, 3 months) of 0.76 % w/v and a DIP formation ([1]; pH 8.0, 6 months) of 0.72 % w/v. It also gave a DIP formation ([1]; pH 8.5, 1 month) of 0.15 % w/v, a DIP formation ([1]; pH 8.5, 3 months) of 0.41 % w/v and a DIP formation ([1]; pH 8.5, 6 months) of 0.73 % w/v. The DIP formation ([1]; pH 9.1, 3 months) was 0.12 % w/v, the DIP formation ([1]; pH 9.1, 6 months) was 0.22 % w/v and the DIP formation ([1]; pH 9.9, 6 months) was 0.09 % w/v. For the same compound, the Amount of hydrolysis ([1]; pH of about 9-9.5, 40° C., 75% RH) was “least amount of hydrolysis”.

With `Oc1ccc(O)cc1` [hydroquinone] the Water solubility (Water solubility) was “poorly water-soluble”.

For `CC(C)c1cccc(C(C)C)c1O` [propofol], the Water solubility (Water solubility) is given as “poorly water-soluble”, the Oral bioavailability [2] is given as “very low” and the “Respiratory consequences, including a reduction in tidal volume and apnea” value [3] is given as “up to 83 % of patients”. The Water solubility [4] was “poorly water soluble”.

For quinone, the Water solubility (Water solubility) was “poorly water-soluble”.
